These are literature values, as cited in PubChem BioAssay AID1259409 (Chemical Carcinogenesis Research Information System (CCRIS), 2018).

The subject of this data set is rodent chemically induced tumor inhibition, incidence and multiplicity. The experiment in a line: CCRIS tumor inhibitor studies.

`CCNC(=O)/C=C(C)/C=C/C=C(C)/C=C/c1c(C)cc(OC)c(C)c1C`: the “tumour outcome (control, treated, inhibition, significance)” value by setting is: (Carcinogen: N,N-DIMETHYLNITROSAMINE, 62-75-9, Dose [Inhibitor]: 60 MG/KG OF DIET DAILY FOR 26 WK STARTING 2 D AFTER CARCINOGEN TREATMENT AT 6 WK OF AGE AND THEN OBSERVED UNTIL DEATH (S, Route [Inhibitor]: ORAL, Species: RAT, Strain/Sex: WISTAR/FEMALE, Target Tissue: Type of Lesion: KIDNEY: EPITHELIAL TUMOR, Dose [Carcinogen]: 40 MG/KG BW ONCE, Promoter: NONE USED) 13/27 (48%), 21/35 (60%), -25%, not significant; (Carcinogen: N,N-DIMETHYLNITROSAMINE, 62-75-9, Dose [Inhibitor]: 60 MG/KG OF DIET DAILY FOR 26 WK STARTING 2 D AFTER CARCINOGEN TREATMENT AT 6 WK OF AGE AND THEN OBSERVED UNTIL DEATH (S, Route [Inhibitor]: ORAL, Species: RAT, Strain/Sex: WISTAR/FEMALE, Target Tissue: Type of Lesion: KIDNEY: MESENCHYMAL TUMOR, Dose [Carcinogen]: 40 MG/KG BW ONCE, Promoter: NONE USED) 22/27 (82%), 26/35 (74%), 10%, not significant; (Carcinogen: N-METHYL-N-NITROSOUREA, 684-93-5, Dose [Inhibitor]: 60 MG/KG OF DIET DAILY STARTING 5 D AFTER FINAL INSTILLATION OF CARCINOGEN AND CONTINUING THROUGH END OF STUDY (STUDY DU, Route [Inhibitor]: ORAL, Species: RAT, Strain/Sex: F344/MALE, Target Tissue: Type of Lesion: COLON: INVASIVE TUBULOPAPILLARY ADENOCARCINOMA, Dose [Carcinogen]: 0.5 MG 2/WK FOR 8 WK, Promoter: NONE USED) 33%, 19%, 42%, not significant; (Carcinogen: N-METHYL-N-NITROSOUREA, 684-93-5, Dose [Inhibitor]: 60 MG/KG OF DIET DAILY STARTING 5 D AFTER FINAL INSTILLATION OF CARCINOGEN AND CONTINUING THROUGH END OF STUDY (STUDY DU, Route [Inhibitor]: ORAL, Species: RAT, Strain/Sex: F344/MALE, Target Tissue: Type of Lesion: COLON: INVASIVE TUBULOPAPILLARY ADENOCARCINOMA, Dose [Carcinogen]: 1 MG 2/WK FOR 8 WK, Promoter: NONE USED) 80%, 85%, -6%, not significant; (Carcinogen: N-METHYL-N-NITROSOUREA, 684-93-5, Dose [Inhibitor]: 60 MG/KG OF DIET DAILY STARTING 5 D AFTER FINAL INSTILLATION OF CARCINOGEN AND CONTINUING THROUGH END OF STUDY (STUDY DU, Route [Inhibitor]: ORAL, Species: RAT, Strain/Sex: F344/MALE, Target Tissue: Type of Lesion: COLON: INVASIVE TUBULOPAPILLARY ADENOCARCINOMA, Dose [Carcinogen]: 2 MG 2/WK FOR 8 WK, Promoter: NONE USED) 95%, 100%, -5%, not significant.
As to `C=C1C/C(=C/C)C(=O)O[C@@H]2CCN3CC=C(COC(=O)[C@@]1(O)CO)[C@H]23`, the “tumour outcome (control, treated, inhibition, significance)” value is recorded as 36/50 (72%), 23/50 (46%), 36%, p<0.05 (Dose [Inhibitor]: 0, 1 MG/KG IN 0.1 M PHOSPHATE BUFFER 5 D/WK FOR 105 WK (STUDY DURATION: 105 EK), Route [Inhibitor]: GAVAGE, Species: MOUSE, Strain/Sex: B6C3F1/MALE, Target Tissue: Type of Lesion: LIVER: HEPATOCELLULAR ADENOMA OR CARCINOMA) and 16/49 (33%), 0/50 (0%), 100%, p<0.01 (Dose [Inhibitor]: 0, 3 MG/KG IN 0.1 M PHOSPHATE BUFFER 5 D/WK FOR 105 WK (STUDY DURATION: 105 WK), Route [Inhibitor]: GAVAGE, Species: MOUSE, Strain/Sex: B6C3F1/FEMALE, Target Tissue: Type of Lesion: LIVER: HEPATOCELLULAR ADENOMA OR CARCINOMA).
In the case of `CS(=O)(=O)Nc1ccc([N+](=O)[O-])cc1OC1CCCCC1`, the “tumour outcome (control, treated, inhibition, significance)” value (Carcinogen: 4-METHYLNITROSAMINO)-1-(3-PYRIDYL)-1-BUTANONE, 64091-91-4, Dose [Inhibitor]: 0, 7 MMOL/KG BW/D IN DIET FOR DURATION OF STUDY BEGINNING 2 WK PRIOR TO CARCINOGEN TREATMENT (STUDY DURATION: 25 WK), Route [Inhibitor]: ORAL, Species: MOUSE, Strain/Sex: STRAIN-A/FEMALE, Target Tissue: Type of Lesion: LUNG: TUMOR, Dose [Carcinogen]: 2.2 MMOL/KG BW (TOTAL DOSE) ADMINISTERED IN DRINKING WATER FOR 7 WK, Promoter: NONE USED) is listed as 29/29 (100%), 25/25 (100%), 0%, not significant.
`COc1ccc(C(c2ccc(OC)cc2)C(Cl)(Cl)Cl)cc1`: the outcome (Carcinogen: N-NITROSOBIS(2-HYDROXYPROPYL)AMINE, 53609-64-6, Dose [Inhibitor]: 0, 1000 PPM IN DIET FOR 27 WK BEGINNING 9 WK POST CARCINOGEN TREATMENT (STUDY DURATION: 37 WK), Route [Inhibitor]: ORAL, Species: RAT, Strain/Sex: F344/FEMALE, Target Tissue: Type of Lesion: THYROID GLAND: ADENOMA, Dose [Carcinogen]: 2000 MG/KG BW 1 WK POST BILATERAL OVARIECTOMY, Promoter: SULFADIMETHOXINE, 122-11-2) is 0/12 (0%), 2/15 (13%), not significant. In addition, the “tumour outcome (control, treated, inhibition, significance)” value (Carcinogen: N-NITROSOBIS(2-HYDROXYPROPYL)AMINE, 53609-64-6, Dose [Inhibitor]: 0, 1000 PPM IN DIET FOR 27 WK BEGINNING 9 WK POST CARCINOGEN TREATMENT (STUDY DURATION: 37 WK), Route [Inhibitor]: ORAL, Species: RAT, Strain/Sex: F344/FEMALE, Target Tissue: Type of Lesion: THYROID GLAND: CARCINOMA, Dose [Carcinogen]: 2000 MG/KG BW 1 WK POST BILATERAL OVARIECTOMY, Promoter: SULFADIMETHOXINE, 122-11-2) is reported as 10/12 (83%), 6/15 (40%), 52%, p<0.05.
Turning to `CC(O)CCCc1ccccc1` (stereo unspecified), the “tumour outcome (control, treated, inhibition, significance)” value (Carcinogen: 4-(METHYLNITROSAMINO)-1-(3-PYRIDYL)-1-BUTANONE, 64091-91-4, Dose [Inhibitor]: 0, 25 UMOL IN 0.1 ML CORN OIL ONCE 2 HR PRIOR TO CARCINOGEN DOSE (STUDY DURATION: 16 WK), Route [Inhibitor]: GAVAGE, Species: MOUSE, Strain/Sex: STRAIN-A/FEMALE, Target Tissue: Type of Lesion: LUNG: TUMOR, Dose [Carcinogen]: 10 UMOL IN 0.1 ML SALINE ONCE, Promoter: NONE USED) was 100%, 100%, 0%, not significant.
With `CCOC(=O)/C=C(C)/C=C/C=C(C)/C=C/c1c(C)cc(OC)c(C)c1C`, the “tumour outcome (control, treated, inhibition, significance)” value is, setting by setting: (Carcinogen: 7,12-DIMETHYLBENZ[A]ANTHRACENE, 57-97-6, Dose [Inhibitor]: 140 NMOL IN 0.2 ML ACETONE 2/WK (D 1 AND D 4 OF EACH WK) 1 HR BEFORE EACH PROMOTER APPLICATION STARTING 14 D AFTER CARCI, Route [Inhibitor]: DERMAL, Species: MOUSE, Strain/Sex: CD-1/FEMALE, Target Tissue: Type of Lesion: SKIN: PAPILLOMA, Dose [Carcinogen]: 0.2 UMOL IN 0.2 ML ACETONE ONCE, Promoter: 12-O-TETRADECANOYLPHORBOL-13-ACETATE, 16561-29-8) 90%, 38%, 58%, not calculated; (Carcinogen: TRANS-5-AMINO-3-[2-(5-NITRO-2-FURYL)VINYL]-1,2,4-OXADIAZOLE;SQL8506, 28754-68-9, Carcinogen: TRANS-5-AMINO-3-[2-(5-NITRO-2-FURYL)VINYL]-1,2,4-OXADIAZOLE;SQL8506, 28754-68-9, Dose [Inhibitor]: 75 MG/KG 18 HR BEFORE THE 1ST DOSE OF EACH CARCINOGEN TREATMENT (STUDY DURATION: LIFETIME), Route [Inhibitor]: ORAL, Species: MOUSE, Strain/Sex: CD-1/FEMALE, Target Tissue: Type of Lesion: HEMATOPOIETIC SYSTEM: MYELOID LEUKEMIA, Dose [Carcinogen]: 1 G/KG 2/D FOR 5 D EVERY 4 WK FOR 3 COURSES OF TREATMENT, Promoter: NONE USED) 7/137 (5%), 0/44 (0%), 100%, not calculated; (Carcinogen: TRANS-5-AMINO-3-[2-(5-NITRO-2-FURYL)VINYL]-1,2,4-OXADIAZOLE;SQL8506, 28754-68-9, Carcinogen: TRANS-5-AMINO-3-[2-(5-NITRO-2-FURYL)VINYL]-1,2,4-OXADIAZOLE;SQL8506, 28754-68-9, Dose [Inhibitor]: 75 MG/KG 18 HR BEFORE THE 1ST DOSE OF EACH CARCINOGEN TREATMENT (STUDY DURATION: LIFETIME), Route [Inhibitor]: ORAL, Species: MOUSE, Strain/Sex: CD-1/FEMALE, Target Tissue: Type of Lesion: LYMPHOID TISSUE: NONTHYMIC LYMPHOMA, Dose [Carcinogen]: 1 G/KG 2/D FOR 5 D EVERY 4 WK FOR 3 COURSES OF TREATMENT, Promoter: NONE USED) 8/137 (6%), 6/44 (14%), -133%, not calculated; (Carcinogen: TRANS-5-AMINO-3-[2-(5-NITRO-2-FURYL)VINYL]-1,2,4-OXADIAZOLE;SQL8506, 28754-68-9, Carcinogen: TRANS-5-AMINO-3-[2-(5-NITRO-2-FURYL)VINYL]-1,2,4-OXADIAZOLE;SQL8506, 28754-68-9, Dose [Inhibitor]: 75 MG/KG 18 HR BEFORE THE 1ST DOSE OF EACH CARCINOGEN TREATMENT (STUDY DURATION: LIFETIME), Route [Inhibitor]: ORAL, Species: MOUSE, Strain/Sex: CD-1/FEMALE, Target Tissue: Type of Lesion: LYMPHOID TISSUE: THYMIC LYMPHOMA, Dose [Carcinogen]: 1 G/KG 2/D FOR 5 D EVERY 4 WK FOR 3 COURSES OF TREATMENT, Promoter: NONE USED) 22/137 (16%), 5/44 (11%), 31%, not calculated; (Carcinogen: TRANS-5-AMINO-3-[2-(5-NITRO-2-FURYL)VINYL]-1,2,4-OXADIAZOLE;SQL8506, 28754-68-9, Carcinogen: TRANS-5-AMINO-3-[2-(5-NITRO-2-FURYL)VINYL]-1,2,4-OXADIAZOLE;SQL8506, 28754-68-9, Dose [Inhibitor]: 75 MG/KG 18 HR BEFORE THE 1ST DOSE OF EACH CARCINOGEN TREATMENT (STUDY DURATION: LIFETIME), Route [Inhibitor]: ORAL, Species: MOUSE, Strain/Sex: CD-1/FEMALE, Target Tissue: Type of Lesion: STOMACH: SQUAMOUS CARCINOMA, Dose [Carcinogen]: 1 G/KG 2/D FOR 5 D EVERY 4 WK FOR 3 COURSES OF TREATMENT, Promoter: NONE USED) 60/137 (44%), 26/44 (59%), -34%, not calculated.
